# Test results: patent US9481682B2, “Substituted benzamides and substituted pyridinecarboxamides as Btk inhibitors” (MERCK SHARP & DOHME CORP., priority 2013, dated 2016)
# Where two headings read alike, the source gives them in different places.
# Experiments:
# [1] = tested on: HeLa cells; experiment: [3H]Adenosine uptake functional cellular assay; assay type: cell-based; details: accumulation of [3H]adenosine into HeLa cells, read-out: Adenosine uptake inhibition IC50
# Procedure: Compounds are also screened in an adenosine uptake functional cellular assay using the protocol described below. The adenosine uptake inhibition assay may be used to identify compounds with the potential for a negative cardiovascular side effect.
# Adenosine uptake activity was determined by monitoring the accumulation of tritiated adenosine into HeLa cells (ATCC catalog #CCL-2) using a PMT-based radiometric detection instrument. […] These cells were incubated overnight at 37° C. in a humidified atmosphere with 5% (v/v) CO2. After this time the growth medium was removed and replaced with 40 μL assay medium comprising: Hanks balanced salts solution (HBSS; Thermo Fisher Catalog #SH30268.01)+5% (v/v) FBS. […] Following this incubation, 20 μL of 500 nM [^3H]adenosine (American Radiolabeled Chemicals Inc. […] The amount of radiolabel accumulation was then determined using a Perkin Elmer Topcount NXT microplate reader. In brief, HeLa cells adhere to the bottom of the Cytostar-T plate, uptake of [^3H]adenosine into these cells brings the radiolabel into sufficient proximity to excite the scintillant in the base of the plates. These events are captured by single PMT, time-resolved coincidence counting. IC50 values were determined by 4 parameter robust fit of counts per second values vs. (Log10) compound concentrations.
# [2] = target: hBTK (recombinant full-length BTK) (Homo sapiens (Human), UniProt Q06187); experiment: BTK enzymatic activity, LANCE TR-FRET assay; assay type: biochemical; details: 50 pM hBTK, 2 μM biotin-A5-peptide, 25 μM ATP; 60 minute compound & enzyme incubation
# Procedure: BTK enzymatic activity was determined with the LANCE (Lanthanide Chelate Excite) TR-FRET (Time-resolved fluorescence resonance energy transfer) assay. […] Phosphorylation reactions were allowed to proceed for 120 minutes. […] After 60 minutes incubation with detection reagents, reaction plates were read on a PerkinElmer EnVision plate reader using standard TR-FRET protocol. […] IC50 values were determined by 4 parameter robust fit of TR-FRET ratio values vs. (Log10) compound concentrations.
# [3] = Homo sapiens, compound range 10 μM to 0.032 nM
# hBTK (recombinant full-length BTK), sequence (Q06187 whole entry): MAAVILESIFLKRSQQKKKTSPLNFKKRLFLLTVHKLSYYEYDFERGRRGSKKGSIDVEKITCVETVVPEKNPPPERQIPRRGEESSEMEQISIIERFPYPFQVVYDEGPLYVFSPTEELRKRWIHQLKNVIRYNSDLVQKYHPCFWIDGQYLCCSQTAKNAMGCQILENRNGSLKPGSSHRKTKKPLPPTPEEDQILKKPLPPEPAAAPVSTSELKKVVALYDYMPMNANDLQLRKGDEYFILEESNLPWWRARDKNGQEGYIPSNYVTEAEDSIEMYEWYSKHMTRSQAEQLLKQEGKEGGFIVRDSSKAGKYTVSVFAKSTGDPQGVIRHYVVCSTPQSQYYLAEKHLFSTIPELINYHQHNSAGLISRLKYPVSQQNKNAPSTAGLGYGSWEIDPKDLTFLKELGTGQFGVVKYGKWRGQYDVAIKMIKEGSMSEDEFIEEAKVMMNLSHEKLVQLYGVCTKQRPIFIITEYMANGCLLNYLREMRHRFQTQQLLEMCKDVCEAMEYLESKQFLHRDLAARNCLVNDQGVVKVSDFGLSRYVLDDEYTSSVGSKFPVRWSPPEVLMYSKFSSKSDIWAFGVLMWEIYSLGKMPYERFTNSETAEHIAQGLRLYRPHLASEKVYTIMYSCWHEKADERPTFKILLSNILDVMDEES
SMILES,"IC50 [1, 3]",IC50 [2],IC50 ([1]; compound range 10 μM to […])
"Nc1nccn2c([C@H]3CC[C@H]4CNCC(=O)N4C3)nc(-c3ccc(C(=O)Nc4cc(C(F)(F)F)ccn4)cc3)c12 [Example 57, 4-{8-amino-3-[(7S,9aS)-4-oxooctahydro-2H-pyrido[1,2-a]pyrazin-7-yl]imidazo[1,5-a]pyrazin-1-yl}-N-[4-(trifluoromethyl)pyridin-2-yl]benzamide]",10000 nM,–,–
"Nc1nccn2c([C@@H]3CC[C@@H]4C[C@H](O)C(=O)N4C3)nc(-c3ccc(C(=O)Nc4cc(C(F)(F)F)ccn4)cc3)c12 [Example 72, 4-{8-amino-3-[(2S,6R,8aR)-2-hydroxy-3-oxooctahydroindolizin-6-yl]imidazo[1,5-a]pyrazin-1-yl}-N-[4-(trifluoromethyl)pyridin-2-yl]benzamide]",730 nM,0.45 nM,–
"Nc1nccn2c([C@H]3CC[C@H]4C[C@@H](O)C(=O)N4C3)nc(-c3ccc(C(=O)Nc4cc(C(F)(F)F)ccn4)cc3)c12 [Example 74, 4-{8-amino-3-[(2R,6S,8aS)-2-hydroxy-3-oxooctahydroindolizin-6-yl]imidazo[1,5-a]pyrazin-1-yl}-N-[4-(trifluoromethyl)pyridin-2-yl]benzamide]",1300 nM,4.6 nM,–
"CN1CC[C@@H]2CC[C@@H](c3nc(-c4ccc(C(=O)Nc5cc(C(F)(F)F)ccn5)cc4)c4c(N)nccn34)CN2C1=O [Example 83, 4-(8-amino-3-((4aS,7R)-2-methyl-1-oxooctahydro-1H-pyrido[1,2-c]pyrimidin-7-yl)imidazol[1,5-a]pyrazin-1-yl)-N-(4-(trifluoromethyl)pyridin-2-yl)benzamide]",–,0.092 nM,124 nM
"CN1CC[C@H]2CC[C@H](c3nc(-c4ccc(C(=O)Nc5cc(C(F)(F)F)ccn5)cc4)c4c(N)nccn34)CN2C1=O [Example 84, 4-(8-amino-3-((4aR,7S)-2-methyl-1-oxooctahydro-1H-pyrido[1,2-c]pyrimidin-7-yl)imidazol[1,5-a]pyrazin-1-yl)-N-(4-(trifluoromethyl)pyridin-2-yl)benzamide]",–,3 nM,155 nM
"COc1cc(C(=O)Nc2cc(C(F)(F)F)ccn2)ccc1-c1nc([C@@H]2CC[C@H]3CN(C(=O)c4ccncc4)CC(=O)N3C2)n2ccnc(N)c12 [Example 85, 4-(8-amino-3-((7R,9aS)-2-isonicotinoyl-4-oxooctahydro-1H-pyrido[1,2-a]pyrazin-7-yl)imidazo[1,5-a]pyrazin-1-yl)-3-methoxy-N-(4-(trifluoromethyl)pyridin-2-yl)benzamide]",2780 nM,–,–
"NC(=O)c1cc(C(=O)Nc2cc(C(F)(F)F)ccn2)ccc1-c1nc([C@@H]2CC[C@H]3CCC(=O)N3C2)n2ccnc(N)c12 [Example 124, 4-{8-amino-3-[(6R,8aS)-3-oxooctahydroindolizin-6-yl]imidazo[1,5-a]pyrazin-1-yl}-N~1~-[4-(trifluoromethyl)pyridin-2-yl]benzene-1,3-dicarboxamide]",10000 nM,–,–
"Cn1nc(NC(=O)c2ccc(-c3nc([C@@H]4CC[C@H]5CCC(=O)N5C4)n4ccnc(N)c34)c(OC3CNC3)c2)cc1C(F)(F)F [Example 149, 4-{8-amino-3-[(6R,8aS)-3-oxooctahydroindolizin-6-yl]imidazo[1,5-a]pyrazin-1-yl}-3-(azetidin-3-yloxy)-N-[1-methyl-5-(trifluoromethyl)-1H-pyrazol-3-yl]benzamide]",10000 nM,–,–
"COCCOc1cc(C(=O)Nc2cccc(C(F)(F)F)c2)ccc1-c1nc([C@@H]2CC[C@H]3CCC(=O)N3C2)n2ccnc(N)c12 [Example 199, 4-(8-amino-3-((6R,8aS)-3-oxooctahydroindolizin-6-yl)imidazo[1,5-a]pyrazin-1-yl)-3-(2-methoxyethoxy)-N-(3-(trifluoromethyl)phenyl)benzamide]",7090 nM,1.9 nM,–
"Nc1nccn2c([C@@H]3CC[C@H]4CCC(=O)N4C3)nc(-c3ccc(C(=O)Nc4cc(C(F)(F)F)ccn4)cc3OCCO)c12 [Example 200, 4-{8-amino-3-[(6R,8aS)-3-oxooctahydroindolizin-6-yl]imidazo[1,5-a]pyrazin-1-yl}-3-(2-hydroxyethoxy)-N-[4-(trifluoromethyl)pyridin-2-yl]benzamide]",5450 nM,–,–
